From patent US20210361774A1, “DEGRADERS OF WILD-TYPE AND MUTANT FORMS OF LRRK2” (DANA-FARBER CANCER INSTITUTE, INC., priority 2018, published 2021)

How the values were obtained:
[1] = target: T1, LRRK2 wt (Homo sapiens, UniProt Q5S007); test: IC50 experiments, Invitrogen Adapta assay, LRRK2 wt; type: biochemical
T1 construct: purchased Invitrogen
Description: (§1) IC50 experiments were performed using Invitrogen™'s Adapta™ assay.

[2] = test system: LRRK2; test: Cellular degradation of LRRK2, Western blot in MEFs; type: cell-based, Mouse; conditions: for degradation of LRRK2 (total level): Western blot, time course, 0 nM-1000 nM; for level of LRRK2 (degradation): after 48 hours (FIG. 18)
Description: (§2) Cell lines used: Mouse embryonic fibroblast (MEF) WT, LRRK2 homozygous knock-ins in MEFs [R1441C; VPS35N(D620N); G2019S].
(§3) Tested concentration of LRRK2 degraders: 0 nM, 10 nM, 30 nM, 100 nM, 300 nM, 1000 nM. Additional concentrations tested for inventive compound 3: 2 uM, 5 uM and 10 uM.
(§4) Complete growth medium: DMEM supplemented with: 10% Fetal Bovine Serum; 1% pen/strep; 1% L-Glutamine; 1% MEM Non-essential Amino Acid Solution; 1% sodium pyruvate.
(§5) Commercial and in-house purified antibodies: • (a) Mouse anti-LRRK2/Dardarin antibody from Antibodies, Inc. (Cat #75-253). • (b) Rabbit monoclonal antibodies for total LRRK2 (UDD3) and pS935-LRRK2 (UDD2) were purified at the University of Dundee (as described in Dzamko et al., PLoS One 7(6): e39132 (2012). • (c) Loading controls: anti-α-tubulin (Cell Signaling Technology #5174); anti-GAPDH (Santa Cruz Biotechnology Cat. #sc-32233) • (d) (p)Rab10 antibodies: rabbit anti-RAB10 (phospho T73) antibody [MJF-R21] (ab230261); mouse MJFF-total Rab10 monoclonal antibody were generated by nanoTools (www.nanotools.de); rabbit Rab10 total was from Cell Signaling Technology (Rab10 (D36C4) XP® Rabbit mAb #8127)
(§6) Treatment: WT MEF, R1441C, VPS35N and G2019S mutants' cells were plated at equal density into 6-well plates in a final volume of 3 mL of complete growth medium/well. Degraders were reconstituted in DMSO and used at 1:1000 in cells i.e. 3 μl/3 ml. Treatment began when cells were >60% confluent, starting from a 48-hour time point, followed by a 24-hour time point, a 6-hour time point and finally a 1-hour time point.
(§7) Cell lysis: Media were aspirated, plates were placed on ice and cells were washed with Dulbecco's phosphate-buffered saline (DPBS). Fifty microliters of an ice-cold lysis buffer containing 50 mM Tris-HCl, pH 7.5, 1% (v/v) Triton X-100, 1 mM ethylene glycol-bis(μ-aminoethyl ether)-N,N,N′,N′-tetraacetic acid (EGTA), 1 mM sodium orthovanadate, 50 mM NaF, 0.1% (v/v) 2-mercaptoethanol, 10 mM 2-glycerophosphate, 5 mM sodium pyrophosphate, 0.1 μg/ml microcystin-LR (Enzo Life Sciences), 270 mM sucrose and complete EDTA-free protease inhibitor cocktail (Sigma-Aldrich Cat #11836170001) was added per well. Lysates were centrifuged at 20,817 g (14,000 rpm) for 15 min at 4° C. and supernatants were used to determine protein concentration using Bradford assay (Pierce™ Coomassie (Bradford) Protein Assay Kit, Thermo Scientific™ Cat #23200) and for Western blot analysis.
(§8) Western blot analysis: Cell lysates were mixed with 4× SDS-PAGE sample buffer [50 mM Tris-HCl, pH 6.8, 2% (w/v) SDS, 10% (v/v) glycerol, 0.02% (w/v) Bromophenol Blue and 1% (v/v) 2-mercaptoethanol] to a final total protein concentration of 1 μg/μl and heated at 95° C. for 5 minutes. Twenty micrograms of samples were loaded onto NuPAGE™ 4-12% Bis-Tris gradient gels (Life Technologies) along with 3 μl of BIO-RAD protein marker (Precision Plus Protein™ All Blue Prestained Protein Standards #1610373 kDa), gels were run in duplicates at 110V for 2 hours and 30 minutes with the NuPAGE™ MOPS SDS running buffer (Life Technologies, Cat #NP0001-02). After electrophoresis, the separated proteins were transferred onto the nitrocellulose membrane (GE Healthcare, Amersham Protran 0.45 μm NC) at 90 V for 90 minutes. Transferred membranes were briefly stained with Ponceau S stain and divided into 3 strips, as described earlier in Fan et al., Biochem. J. 475:23-44 (2018). Briefly, upper strip was cut from the top of the membrane to 75 kDa, middle strip cut was between 75 kDa—30 kDa and bottom strip cut was from 30 kDa—to the bottom of the membrane. Membrane strips were blocked at room temperature with 5% (w/v) dried skimmed milk dissolved in TBS-T [20 mM Tris-HCl, pH 7.5, 150 mM NaCl and 0.1% (v/v) Tween® 20] for 1 hour, washed four times with ten minutes intervals in TBS-T and incubated with primary antibodies diluted in 5% BSA (bovine serum albumin) in TBS-T overnight at 4° C. […]

[3] = test system: Rab10 (phospho T73); test: Inhibition of phosphorylation of Rab10, Western blot in MEFs; type: cell-based, Mouse; conditions: for inhibition of phosphorylation of Rab10: Western blot, time course, 0 nM-1000 nM
Description: as §2, §3, §4, §5, §6, §7, §8

[4] = target: T2, LRRK2 G2019S (Homo sapiens, UniProt Q5S007, G2019S); test: IC50 experiments, Invitrogen Adapta assay, LRRK2 G2019S; type: biochemical
T2 construct: purchased Invitrogen
Description: as §1

[5] = test system: LRRK2 pS935; test: Inhibition of phosphorylation of S935, Western blot in MEFs; type: cell-based, Mouse; conditions: for inhibition of phosphorylation of S935: Western blot, time course, 0 nM-1000 nM
Description: as §2, §3, §4, §5, §6, §7, §8

[6] = target: T3, LRRK2 R1441C homozygous knock-in MEFs (Mus musculus, UniProt Q5S006, R1441C); test: Cellular degradation of LRRK2 in R1441C homozygous cells, Western blot; type: cell-based; conditions: R1441C homozygous cells (FIG. 3B), time course, 0 nM-1000 nM
T3 construct: endogenous in cells; host or cells: LRRK2 R1441C homozygous knock-in MEFs
Description: as §2, §3, §4, §5
Treatment: WT MEF, R1441C, VPS35N and G2019S mutants' cells were plated at equal density into 6-well plates in a final volume of 3 mL of complete growth medium/well. Degraders were reconstituted in DMSO and used at 1:1000 in cells i.e. 3 μl/3 ml. […]

T1 sequence (Q5S007 whole entry): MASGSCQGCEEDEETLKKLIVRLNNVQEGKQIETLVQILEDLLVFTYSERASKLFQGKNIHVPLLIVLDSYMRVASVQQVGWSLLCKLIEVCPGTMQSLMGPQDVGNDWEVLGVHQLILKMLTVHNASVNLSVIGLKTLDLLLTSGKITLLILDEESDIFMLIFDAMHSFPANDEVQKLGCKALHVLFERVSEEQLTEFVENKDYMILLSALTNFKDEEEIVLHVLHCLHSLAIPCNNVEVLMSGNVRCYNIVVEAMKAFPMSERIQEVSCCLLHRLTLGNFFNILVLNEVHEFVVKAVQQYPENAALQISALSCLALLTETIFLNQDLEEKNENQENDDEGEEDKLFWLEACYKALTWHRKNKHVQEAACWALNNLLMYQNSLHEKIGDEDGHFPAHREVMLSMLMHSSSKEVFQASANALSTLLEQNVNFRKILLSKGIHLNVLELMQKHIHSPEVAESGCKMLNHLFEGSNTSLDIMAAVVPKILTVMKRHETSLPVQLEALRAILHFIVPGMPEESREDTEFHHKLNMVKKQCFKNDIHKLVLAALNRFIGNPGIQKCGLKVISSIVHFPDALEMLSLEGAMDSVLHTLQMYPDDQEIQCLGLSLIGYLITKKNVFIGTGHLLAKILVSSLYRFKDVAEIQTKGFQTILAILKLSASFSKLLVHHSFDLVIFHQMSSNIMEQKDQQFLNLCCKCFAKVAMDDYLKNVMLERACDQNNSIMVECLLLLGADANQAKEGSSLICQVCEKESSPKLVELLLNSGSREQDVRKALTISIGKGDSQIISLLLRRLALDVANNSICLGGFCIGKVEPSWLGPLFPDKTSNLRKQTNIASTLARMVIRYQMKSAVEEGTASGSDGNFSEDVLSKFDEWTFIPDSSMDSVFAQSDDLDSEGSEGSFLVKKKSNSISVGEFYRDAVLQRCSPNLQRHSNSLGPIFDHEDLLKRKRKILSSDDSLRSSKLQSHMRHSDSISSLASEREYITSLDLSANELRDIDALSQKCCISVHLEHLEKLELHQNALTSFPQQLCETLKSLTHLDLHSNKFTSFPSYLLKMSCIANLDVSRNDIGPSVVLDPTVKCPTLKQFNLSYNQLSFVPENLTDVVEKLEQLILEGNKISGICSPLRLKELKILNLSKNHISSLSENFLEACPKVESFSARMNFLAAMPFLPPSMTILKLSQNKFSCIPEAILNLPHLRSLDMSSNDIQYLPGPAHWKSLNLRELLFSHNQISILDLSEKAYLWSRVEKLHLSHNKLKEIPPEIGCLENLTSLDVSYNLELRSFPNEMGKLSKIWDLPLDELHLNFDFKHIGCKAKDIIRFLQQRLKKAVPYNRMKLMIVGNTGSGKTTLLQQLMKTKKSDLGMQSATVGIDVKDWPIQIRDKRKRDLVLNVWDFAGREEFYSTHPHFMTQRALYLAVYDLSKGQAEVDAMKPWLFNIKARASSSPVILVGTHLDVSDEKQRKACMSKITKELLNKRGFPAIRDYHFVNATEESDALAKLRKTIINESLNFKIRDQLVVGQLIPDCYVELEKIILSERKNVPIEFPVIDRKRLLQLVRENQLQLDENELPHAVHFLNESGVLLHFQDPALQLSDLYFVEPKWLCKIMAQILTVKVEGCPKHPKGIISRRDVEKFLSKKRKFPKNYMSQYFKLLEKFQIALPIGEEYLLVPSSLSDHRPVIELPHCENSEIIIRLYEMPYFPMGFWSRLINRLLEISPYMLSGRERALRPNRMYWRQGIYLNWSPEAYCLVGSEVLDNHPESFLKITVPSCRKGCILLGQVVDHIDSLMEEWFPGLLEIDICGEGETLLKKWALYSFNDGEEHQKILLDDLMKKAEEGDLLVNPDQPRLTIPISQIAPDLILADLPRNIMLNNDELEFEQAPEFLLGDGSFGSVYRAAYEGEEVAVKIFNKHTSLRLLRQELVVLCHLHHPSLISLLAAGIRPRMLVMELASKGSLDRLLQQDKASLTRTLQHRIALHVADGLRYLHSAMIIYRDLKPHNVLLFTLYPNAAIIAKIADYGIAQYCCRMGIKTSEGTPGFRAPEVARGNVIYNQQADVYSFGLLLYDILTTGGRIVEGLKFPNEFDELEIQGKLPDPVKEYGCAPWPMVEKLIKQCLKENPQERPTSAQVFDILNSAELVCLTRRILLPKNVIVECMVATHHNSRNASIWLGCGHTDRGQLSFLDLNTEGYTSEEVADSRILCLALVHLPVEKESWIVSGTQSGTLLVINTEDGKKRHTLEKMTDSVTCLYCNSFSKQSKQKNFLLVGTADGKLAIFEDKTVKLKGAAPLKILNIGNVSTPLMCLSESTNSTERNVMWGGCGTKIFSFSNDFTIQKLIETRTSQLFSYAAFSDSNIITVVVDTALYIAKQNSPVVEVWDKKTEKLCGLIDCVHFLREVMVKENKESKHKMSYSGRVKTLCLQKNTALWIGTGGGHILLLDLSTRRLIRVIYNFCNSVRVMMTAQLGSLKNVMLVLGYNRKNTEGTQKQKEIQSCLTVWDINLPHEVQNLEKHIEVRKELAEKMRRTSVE
T2 sequence (Q5S007 whole entry G2019S): as the sequence (Q5S007 whole entry) above, with G2019S counted along it
T3 sequence (Q5S006 whole entry R1441C): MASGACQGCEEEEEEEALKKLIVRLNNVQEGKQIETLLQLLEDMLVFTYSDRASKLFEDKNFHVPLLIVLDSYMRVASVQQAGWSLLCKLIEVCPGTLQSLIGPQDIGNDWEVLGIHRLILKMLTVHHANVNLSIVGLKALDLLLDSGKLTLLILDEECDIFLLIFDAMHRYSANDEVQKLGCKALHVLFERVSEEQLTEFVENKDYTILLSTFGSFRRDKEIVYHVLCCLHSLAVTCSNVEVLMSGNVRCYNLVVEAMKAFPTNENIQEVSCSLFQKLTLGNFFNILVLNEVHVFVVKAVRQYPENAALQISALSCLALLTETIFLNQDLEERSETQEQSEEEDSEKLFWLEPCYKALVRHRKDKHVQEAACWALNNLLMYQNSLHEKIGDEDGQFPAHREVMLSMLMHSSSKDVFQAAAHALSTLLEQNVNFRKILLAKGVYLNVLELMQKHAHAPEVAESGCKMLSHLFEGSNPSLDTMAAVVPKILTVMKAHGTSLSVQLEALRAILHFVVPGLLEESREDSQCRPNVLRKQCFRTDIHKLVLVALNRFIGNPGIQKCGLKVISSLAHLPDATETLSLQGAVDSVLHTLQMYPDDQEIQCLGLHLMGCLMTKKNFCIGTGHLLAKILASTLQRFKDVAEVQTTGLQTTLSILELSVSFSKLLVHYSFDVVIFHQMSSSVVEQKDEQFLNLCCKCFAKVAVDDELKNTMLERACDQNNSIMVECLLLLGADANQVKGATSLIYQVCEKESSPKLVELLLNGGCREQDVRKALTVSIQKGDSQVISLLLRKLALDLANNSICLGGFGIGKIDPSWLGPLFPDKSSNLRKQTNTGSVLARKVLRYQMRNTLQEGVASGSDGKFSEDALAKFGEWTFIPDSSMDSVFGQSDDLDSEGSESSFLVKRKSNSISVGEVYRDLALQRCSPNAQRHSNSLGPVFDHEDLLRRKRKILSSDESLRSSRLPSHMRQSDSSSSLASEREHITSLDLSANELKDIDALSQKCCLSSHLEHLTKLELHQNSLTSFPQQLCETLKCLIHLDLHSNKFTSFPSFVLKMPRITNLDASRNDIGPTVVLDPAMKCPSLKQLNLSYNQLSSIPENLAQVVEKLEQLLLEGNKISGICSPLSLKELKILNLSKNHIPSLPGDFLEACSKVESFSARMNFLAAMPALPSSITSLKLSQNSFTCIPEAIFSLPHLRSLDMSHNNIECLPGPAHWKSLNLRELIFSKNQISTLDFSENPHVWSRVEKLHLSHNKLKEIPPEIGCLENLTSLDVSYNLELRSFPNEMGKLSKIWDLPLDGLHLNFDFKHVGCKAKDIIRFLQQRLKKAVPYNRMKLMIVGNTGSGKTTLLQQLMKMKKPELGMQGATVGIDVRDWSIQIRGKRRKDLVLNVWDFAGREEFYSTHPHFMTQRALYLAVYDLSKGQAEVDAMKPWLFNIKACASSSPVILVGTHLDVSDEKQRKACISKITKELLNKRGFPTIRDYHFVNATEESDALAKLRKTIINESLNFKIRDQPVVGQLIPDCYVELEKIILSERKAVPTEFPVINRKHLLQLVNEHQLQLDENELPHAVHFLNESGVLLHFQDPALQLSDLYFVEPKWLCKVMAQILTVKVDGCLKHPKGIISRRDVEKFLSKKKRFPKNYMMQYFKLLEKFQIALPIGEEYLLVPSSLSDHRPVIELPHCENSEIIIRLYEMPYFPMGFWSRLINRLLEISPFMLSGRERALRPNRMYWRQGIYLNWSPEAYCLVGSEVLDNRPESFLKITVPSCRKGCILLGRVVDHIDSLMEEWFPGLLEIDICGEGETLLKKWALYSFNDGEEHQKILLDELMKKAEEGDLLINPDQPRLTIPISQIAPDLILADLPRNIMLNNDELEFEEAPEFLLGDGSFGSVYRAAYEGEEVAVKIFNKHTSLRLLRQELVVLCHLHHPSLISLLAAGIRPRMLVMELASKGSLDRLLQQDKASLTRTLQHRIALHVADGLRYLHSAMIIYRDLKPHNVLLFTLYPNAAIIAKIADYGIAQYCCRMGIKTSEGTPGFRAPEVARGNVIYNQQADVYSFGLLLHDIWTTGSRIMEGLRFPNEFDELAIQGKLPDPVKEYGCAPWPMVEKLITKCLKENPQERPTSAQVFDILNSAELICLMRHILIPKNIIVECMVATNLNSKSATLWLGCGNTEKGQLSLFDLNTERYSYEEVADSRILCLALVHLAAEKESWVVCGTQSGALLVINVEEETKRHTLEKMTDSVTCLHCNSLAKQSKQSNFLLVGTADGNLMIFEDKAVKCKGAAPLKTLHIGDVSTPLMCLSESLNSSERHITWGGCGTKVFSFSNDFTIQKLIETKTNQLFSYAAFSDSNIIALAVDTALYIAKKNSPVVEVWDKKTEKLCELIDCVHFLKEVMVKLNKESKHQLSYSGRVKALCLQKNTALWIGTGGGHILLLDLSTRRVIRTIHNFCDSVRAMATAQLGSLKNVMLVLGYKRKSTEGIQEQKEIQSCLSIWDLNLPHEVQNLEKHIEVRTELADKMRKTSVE

Structure (SMILES) | IC50 [1] [nM] | IC50 [4] [nM] | degradation of LRRK2 (C-terminus) [6] | degradation of LRRK2 (total level) [2] | inhibition of phosphorylation of Rab10 [3] | inhibition of phosphorylation of S935 [5] | level of LRRK2 (degradation) [2] | inhibition of pRAB10 ([3]; after 48 hours (FIG. 18)) | inhibition of pS935 ([5]; after 48 hours (FIG. 18))
CNc1nc(Nc2ccc(C(=O)N3CCN(CCOCCOCCOCCNc4cccc5c4C(=O)N(C4CCC(=O)NC4=O)C5=O)CC3)cc2OC)ncc1C(F)(F)F (stereo not shown) [Compound 5] | – | – | – | did not degrade | inhibited | inhibited | – | – | –
CC1(Oc2ccc3[nH]nc(-c4cc(N5CCN(C(=O)CCOCCNc6cccc7c6C(=O)N(C6CCC(=O)NC6=O)C7)CC5)ncn4)c3c2)CC1 (stereo not shown) [Compound 11, 3-(7-((2-(3-(4-(6-(5-(1-methylcyclopropoxy)-1H-indazol-3-yl)pyrimidin-4-yl)piperazin-1-yl)-3-oxopropoxy)ethyl)amino)-1-oxoisoindolin-2-yl)piperidine-2,6-dione] | 2.5 | 1.47 | – | Some degradation | – | inhibits | – | – | –
CC1(Oc2ccc3[nH]nc(-c4cc(N5CCN(C(=O)CCOCCOCCNc6cccc7c6C(=O)N(C6CCC(=O)NC6=O)C7)CC5)ncn4)c3c2)CC1 (stereo not shown) [Compound 12, 3-(7-((2-(2-(3-(4-(6-(5-(1-methylcyclopropoxy)-1H-indazol-3-yl)pyrimidin-4-yl)piperazin-1-yl)-3-oxopropoxy)ethoxy)ethyl)amino)-1-oxoisoindolin-2-yl)piperidine-2,6-dione] | 2.58 | 2.24 | – | Minor degradation | – | inhibited | – | – | –
CC1(Oc2ccc3[nH]nc(-c4cc(N5CCN(C(=O)CCOCCOCCOCCOCCNc6cccc7c6C(=O)N(C6CCC(=O)NC6=O)C7)CC5)ncn4)c3c2)CC1 (stereo not shown) [Compound 13] | 3.14 | 3.16 | – | Some degradation | – | inhibited | – | – | –
Cc1ncsc1-c1ccc([C@@H](C)NC(=O)[C@H]2C[C@H](O)CN2C(=O)[C@H](NC(=O)CCOCCOCCOCCC(=O)N2CCN(c3cc(-c4n[nH]c5ccc(OC6(C)CC6)cc45)ncn3)CC2)C(C)(C)C)cc1 [Compound 14, (2R,4S)-1-((R)-2-(tert-butyl)-16-(4-(6-(5-(1-methylcyclopropoxy)-1H-indazol-3-yl)pyrimidin-4-yl)piperazin-1-yl)-4,16-dioxo-7,10,13-trioxa-3-azahexadecanoyl)-4-hydroxy-N—((R)-1-(4-(4-methylthiazol-5-yl)phenyl)ethyl)pyrrolidine-2-carboxamide] | – | – | – | No degradation | inhibited | inhibited | – | – | –
Cc1ncsc1-c1ccc([C@H](C)NC(=O)[C@@H]2C[C@@H](O)CN2C(=O)[C@@H](NC(=O)CCOCCOCCOCCOCCC(=O)N2CCN(c3cc(-c4n[nH]c5ccc(OC6(C)CC6)cc45)ncn3)CC2)C(C)(C)C)cc1 [Compound 15] | – | – | – | No degradation | inhibited | inhibited | – | – | –
CC1(Oc2ccc3[nH]nc(-c4cc(N5CCN(C(=O)CCOCCOCCNc6cccc7c6C(=O)N(C6CCCNC6=O)C7=O)CC5)ncn4)c3c2)CC1 (stereo not shown) [Compound 16] | – | – | – | – | – | – | did not reduce | potently inhibited | potently inhibited
CN1CCN(c2cc(-c3n[nH]c4ccc(OC5(C)CC5)cc34)ncn2)CC1 [MLi-2 analog, 5-(1-methylcyclopropyl)oxy-3-[6-(4-methylpiperazin-1-yl)pyrimidin-4-yl]-1H-indazole, reference compound] | – | – | – | did not decrease | – | inhibits | – | – | –

Continued, in another order:

IC50 [1] [nM] | IC50 [4] [nM] | degradation of LRRK2 (C-terminus) [6] | Structure (SMILES) | degradation of LRRK2 (total level) [2] | inhibition of phosphorylation of Rab10 [3] | inhibition of phosphorylation of S935 [5] | level of LRRK2 (degradation) [2] | inhibition of pRAB10 ([3]; after 48 hours (FIG. 18)) | inhibition of pS935 ([5]; after 48 hours (FIG. 18))
4 | 2 | – | CNc1nc(Nc2ccc(C(=O)N3CCN(C(=O)CCOCCOCCOCCOCCNc4cccc5c4C(=O)N(C4CCC(=O)NC4=O)C5=O)CC3)cc2OC)ncc1C(F)(F)F (stereo not shown) [Compound 1] | did not degrade | inhibited | inhibited | – | – | –
2 | 1 | – | CNc1nc(Nc2ccc(C(=O)N3CCN(C(=O)CCOCCOCCNc4cccc5c4C(=O)N(C4CCC(=O)NC4=O)C5=O)CC3)cc2OC)ncc1C(F)(F)F (stereo not shown) [Compound 2] | did not degrade | inhibited | inhibited | – | – | –
2 | 1 | observed | CNc1nc(Nc2ccc(C(=O)N3CCN(C(=O)CCCCCCCCOc4cccc5c4C(=O)N(C4CCC(=O)NC4=O)C5=O)CC3)cc2OC)ncc1C(F)(F)F (stereo not shown) [Compound 3, 2-(2,6-dioxopiperidin-3-yl)-4-((9-(4-(3-methoxy-4-((4-(methylamino)-5-(trifluoromethyl)pyrimidin-2-yl)amino)benzoyl)piperazin-1-yl)-9-oxononyl)oxy)isoindoline-1,3-dione] | did not degrade | inhibited | inhibited | – | – | –
1.24 | 1.13 | – | CC1(Oc2ccc3[nH]nc(-c4cc(N5CCN(C(=O)CCOCCOCCNc6cccc7c6C(=O)N(C6CCC(=O)NC6=O)C7=O)CC5)ncn4)c3c2)CC1 (stereo not shown) [Compound 8, 2-(2,6-dioxopiperidin-3-yl)-4-((2-(2-(3-(4-(6-(5-(1-methylcyclopropoxy)-1H-indazol-3-yl)pyrimidin-4-yl)piperazin-1-yl)-3-oxopropoxy)ethoxy)ethyl)amino)isoindoline-1,3-dione] | decreased | – | inhibited | degraded | – | –
1.46 | 0.98 | – | CC1(Oc2ccc3[nH]nc(-c4cc(N5CCN(C(=O)CCOCCOCCOCCOCCNc6cccc7c6C(=O)N(C6CCC(=O)NC6=O)C7=O)CC5)ncn4)c3c2)CC1 (stereo not shown) [Compound 9] | decreased | – | inhibited | – | – | –
1.59 | 1.08 | – | CC1(Oc2ccc3[nH]nc(-c4cc(N5CCN(C(=O)CCOCCNc6cccc7c6C(=O)N(C6CCC(=O)NC6=O)C7=O)CC5)ncn4)c3c2)CC1 (stereo not shown) [Compound 10, 2-(2,6-dioxopiperidin-3-yl)-4-((2-(3-(4-(6-(5-(1-methylcyclopropoxy)-1H-indazol-3-yl)pyrimidin-4-yl)piperazin-1-yl)-3-oxopropoxy)ethyl)amino)isoindoline-1,3-dione] | Less degradation | – | inhibited | – | – | –
